Reference: US8148347B2, “Inhibition of interaction of PSD93 and PSDS95 with nNOS and NMDA receptors” (The Johns Hopkins University, priority 2000, dated 2012)
Entries after “also recorded” stand apart in the source; their conditions may differ.

Key:
[1] = tested on: PSD-93/nNOS; test: yeast two-hybrid growth in −LTH medium, pGAD424-PSD-93 and pGBT9-nNOS; assay type: cell-based
From the text: (§1) We utilized the yeast two-hybrid system to investigate the effects of halothane on protein interactions within the NMDA receptor signaling complex. The PDZ domain of nNOS or the C-terminus of NMDA receptor subunit 2B (NR2B) was fused in frame with the GAL4 DNA-binding domain in a yeast vector, pGBT9. The PDZ domain of PSD95 or PSD-93 was fused in frame with the GAL4 activation domain in another yeast vector, pGAD424. Both yeast vectors were co-transformed into the Y190 yeast strain, which was then grown in the absence or presence of halothane at clinically relevant concentrations. Protein-protein interactions were confirmed by both yeast growth on −Leu/−Trp/−His (−LTH) medium and lacz expression. To confirm the yeast two-hybrid results, the GST fusion protein binding assay was performed. The GST-fusion proteins, consisting of the second PDZ domain of PSD-95 or PSD-93, were expressed in bacterial BL21 cells and purified using glutathione-coupled agarose. After preincubation with or without different concentrations of halothane, GST-PSD-95 or GST-PSD-93 was incubated with membrane proteins from rat hippocampus at room temperature for 1 h. After extensive washing, the bound proteins were eluted by boiling in 1×SDS-PAGE sample buffer and detected by immunoblotting.

[2] = biological target: T1, PSD-95/nNOS (Rattus norvegicus, UniProt P31016); test: GST fusion protein binding assay, GST-PSD-95 and nNOS; conditions: preincubation with different concentrations of halothane
T1 construct: The GST-fusion proteins, consisting of the second PDZ domain of PSD-95 or PSD-93; made in house; host or cells: bacterial BL21 cells (GST fusion); partner from rat hippocampal membranes
From the text: as §1

[3] = tested on: PSD-93/NMDA receptor; test: GST fusion protein binding assay, GST-PSD-93 and NMDA receptors; set-up: species or system rat; conditions: preincubation with different concentrations of halothane
From the text: as §1, with “Protein-protein interactions were confirmed by both yeast growth on −Leu/−Trp/−His (−LTH) medium and lacz expression.” left out

[4] = tested on: PSD-95/nNOS; test: yeast two-hybrid growth in −LTH medium, pGAD424-PSD-95 and pGBT9-nNOS; assay type: cell-based
From the text: as §1

[5] = tested on: Y190 yeast strain; test: yeast growth in −LT media (cytotoxicity control); assay type: cell-based; conditions: high halothane concentration (3.6%)
From the text: Under normal conditions, PSD-95 interacts with nNOS, resulting in good growth of the yeast carrying pGAD424-PSD-95 and pGBT9-nNOS in −LTH medium. […] Rather, the failure of yeast to grow in −LTH media in the presence of halothane must be due to disruption of protein-protein interactions by halothane. […] These findings confirm the yeast two-hybrid results.
as §1, with “The GST-fusion proteins, consisting of the second PDZ domain of PSD-95 or PSD-93, were expressed in bacterial BL21 cells and purified using glutathione-coupled agarose. After preincubation with or without different concentrations of halothane, GST-PSD-95 or GST-PSD-93 was incubated with membrane proteins from rat hippocampus at room temperature for 1 h.” left out

[6] = tested on: PSD-93/nNOS; test: GST fusion protein binding assay, GST-PSD-93 and nNOS; set-up: species or system rat; conditions: preincubation with different concentrations of halothane
From the text: as §1

[7] = biological target: T2, PSD-95/NMDA receptor (Rattus norvegicus, UniProt P31016); test: GST fusion protein binding assay, GST-PSD-95 and NMDA receptors; conditions: preincubation with different concentrations of halothane
T2 construct: The GST-fusion proteins, consisting of the second PDZ domain of PSD-95 or PSD-93; made in house; host or cells: bacterial BL21 cells (GST fusion); partner from rat hippocampal membranes
From the text: as §1

[8] = tested on: PSD-95/NMDA receptor subunit 2B (NR2B); test: yeast two-hybrid growth in −LTH medium, pGAD424-PSD-95 and pGBT9-2B; assay type: cell-based
From the text: as §1

[9] = tested on: PSD-93/NMDA receptor subunit 2B (NR2B); test: yeast two-hybrid growth in −LTH medium, pGAD424-PSD-93 and pGBT9-2B; assay type: cell-based
From the text: as §1

[10] = tested on: Male Sprague-Dawley rats; test: tests of locomotor function (placing, grasping, righting reflex) and general behaviors; assay type: in vivo, rat; conditions: saline pretreatment + 1.25 μg NMDA intrathecal; five trials, mean (SD)
Procedure: The effects of ODNs on locomotor function were examined using the following methods.^52 The animals were organized randomly into six groups: control (saline); 12.5 antisense ODN; 25 μg antisense ODN; 50 μg antisense ODN; 50 μg sense ODN; 50 μg missense ODN. The rats were pretreated with ODNs or saline in the manner described above. On the fifth day, 10 μl of saline was injected intrathecally for each rat. In some saline or antisense ODN (50 μg)-treated rats, fresh NMDA solution (1.25 μg/10 μl) was injected intrathecally. The following tests were performed with the experimenter blind to which group was treated with the agents: (1) Placing reflex: The rat was held with the hind limbs slightly lower than the forelimbs, and the dorsal surfaces of the hind paws were brought into contact with the edge of a table. The experimenter recorded whether the hind paws were placed on the table surface reflexively; (2) Grasping reflex: The rat was placed on a wire grid and the experimenter recorded whether the hind paws grasped the wire on contact; (3) Righting reflex: The rat was placed on its back on a flat surface and the experimenter noted whether it immediately assumed the normal upright position. […] In addition, the rat general behaviors including spontaneous activity were observed.

[11] = tested on: Male Sprague-Dawley rats; test: blood pressure and heart rate during isoflurane anesthesia; assay type: in vivo, rat; conditions: saline-treated group, intrathecal NMDA 1.25 μg
From the text: (§2) On the fifth day after saline or ODNs injection, each rat was placed in a clear plastic cone and anesthetized with 5% isoflurane in oxygen for three to five minutes. After tracheostomy, the trachea of each animal was intubated with a 16-gauge polyethylene catheter. The inspired isoflurane concentration was reduced to 2%, and the animals breathed spontaneously until cannulation of a carotid artery and a jugular vein with PE-50 tubing was accomplished. The isoflurane concentration was decreased further to 1.5%, and ventilation was controlled by a Harvard Animal Respirator (Harvard Apparatus, South Natick, Mass.) adjusted according to the measurement of arterial blood gases to maintain normal partial pressure of oxygen (PO2=91-94 mmHg), partial pressure of carbon dioxide (PCO2=33-41 mmHg) and pH (7.4-7.44). Electrocardiography and systolic and diastolic blood pressure were monitored using a Grass Polygraph (Astroumed Grass, Quincy, Mass.) and Gould Pressure Transducer (Gould, Cleveland, Ohio). Rectal temperature was maintained between 36.5 and 37.5° C. by use of a heating blanket and warming lights.
(§3) In some saline-treated rats, after initial baseline MAC determination, NMDA at the dose of 1.25 μg^38 or saline was injected intrathecally in a volume of 10 μl saline, followed by an injection of 10 μl saline to flush the catheter. Fresh NMDA solution was prepared for each experiment. […] At this isoflurane concentration, 10 min after the intrathecal injection of NMDA, the animals were tested again for reactivity to tail clamp. The concentration of isoflurane was increased, and response to tail clamp was checked every 12-15 min thereafter until a negative response was achieved. In some antisense ODN (50 μg)-treated rats, after initial MAC determination, NMDA or saline was also administered intrathecally. The MAC for isoflurane was again determined following the aforementioned procedures.

[12] = tested on: Male Sprague-Dawley rats; test: measurement of isoflurane MAC (tail clamp); assay type: in vivo, rat; conditions: saline-treated group, intrathecal NMDA 1.25 μg
Procedure: The ODNs were dissolved in saline before administration. As described in the previous work,^49 the rats were injected intrathecally with saline (10 μl) (control), antisense ODNs (12.5, 25, 50 μg/10 μl), sense ODN (50 μg/10 μl) and missense ODN (50 μg/10 μl), respectively, followed by an injection of 10 μl of saline to flush the catheter, every 24 h for 4 days.
as §2
A PE-10 catheter was introduced through and beyond the endotracheal tube until obstruction to passage was met and then withdrawn 1 to 2 mm. For isoflurane MAC measurement, the PE-10 catheter was connected to a parameter airway gas monitor (Datex-Engstrom, Inc., Tewksbury, Mass.). After stabilizing about 30 minutes, MAC was measured according to the methods described previously^34 using a long hemostat (8-inch Rochester Dean Hemostatic Forceps) clamped to the first ratchet lock on the tail for 1 min. The tail was always stimulated proximal to a previous test site. Gross movement of the head, extremities, or body was taken as a positive test result, whereas grimacing, swallowing, chewing, or tail flick were considered negative results. The isoflurane concentration was reduced in decrements of 0.12 to 0.15% until the negative response became positive, with 12-15 min equilibration allowed after changes in concentration.^50,51 The MAC was considered to be the concentration midway between the highest concentration that permitted movement in response to the stimulus and the lowest concentration that prevented movement. Finally, intrathecal PE-10 catheter position from each animal was confirmed.
as §3

[13] = tested on: Male Sprague-Dawley rats; test: radiant heat tail-flick test, baseline and NMDA-induced thermal hyperalgesia; assay type: in vivo, rat
From the text: To examine whether PSD-95/SAP90 was required for thermal hyperalgesia triggered through NMDA receptor activation, we made an antisense oligonucletide (OND) corresponding to the PDZ domain nucleotides 241 to 258 (5′-[…]-3′; SEQ ID NO: 1) of rat PSD-95/SAP90 mRNA, as well as the sense OND and missense OND (5′-[…]-3′; SEQ ID NO: 2). All of the ONDs were compared to the Gene Bank database (GenBank accession number M96853) and found not to be complementary to any registered nucleotide sequences. The effects of antisense, sense and missense ONDs on baseline and NMDA-induced tail-flick latencies were assessed. […] To identify that NMDA-induced thermal hyperalgesia was produced specifically through NMDA receptor activation but not non-NMDA receptor activation, we observed the effects of a selective NMDA receptor antagonist, MK-801, and a selective non-NMDA receptor antagonist, DNQX, on NMDA-induced facilitation of the tail-flick reflex. […] In addition, motor weakness or dysfunction was not observed in locomotor tests (including placing reflex, grasping reflex and righting reflex) in any of the treated animals including the antisense groups (data not shown).
Animal preparation and behavioral testing. All experiments were carried out with the approval of the Animal Care Committee at the Johns Hopkins University and were consistent with the ethical guidelines of the National Institutes of Health and the International Association for the Study of Pain. Male Sprague-Dawley rats (250-300 g) were implanted with an intrathecal PE-10 catheter into the subarachnoid space at the rostral level of the spinal cord lumbar enlargement through an incision at the atlanto-occipital membrane according to the method as described.^25,27 One week or more later, the rats were injected intrathecally with saline or ONDs every 24 h for 4 days. On the fifth day, saline, NMDA, MK-801+NMDA or DNQX+NMDA was given intrathecally. Nociception was evaluated by the radiant heat tail-flick test. The doses and time point of maximal effect of NMDA used in the present study were determined based on a previous study.^24 The tail-flick apparatus (Model 33B Tail Flick Analgesy Meter, IITC Life Science, Woodland Hills, Calif., USA) generated a beam of radiant heat that was focused on the underside of the tail, 5 cm from the tip. A cut-off time latency of 13.5 s was used to avoid tissue damage to the tail. Nociception was assessed by the time required to induce tail-flick after applying radiant heat to the skin of the tail. The latency of reflexive removal of the tail from the heat was measured automatically to the nearest 0.01 s. Tail-flick latency was measured five times, and the basal latency was defined as the mean. Tail-flick data were expressed as percentage change calculated by the formula: (trial latency−baseline latency)/(baseline latency)×100%. Finally, PE-10 catheter position from each animal was confirmed when lumbar enlargement segments were removed for western blot analysis. PCR analysis of PSD-95/SAP90 in rat spinal cord. The cDNA sequences encoding portions of the PSD-95/SAP90 were amplified using the following synthetic OND primers: PSD1 (5′-[…]-3′; SEQ ID NO: 3) and PSD2 (5′-[…]-3′; SEQ ID NO: 4) for amplification of PSD-95/SAP90 codon positions 789-1525. RNA samples (1 μg) from rat spinal cord, brain and muscle were reverse transcribed to generate first-strand cDNA. The PCR reactions were performed for 25 cycles. Each cycle included 30 s at 94° C., 30 s at 55° C., and 30 s at 71° C. The PCR products were directly cloned into the TA cloning vector (Invitrogen Co., San Diego, Calif., USA) and verified by automatic DNA sequencing. Fusion protein construction and preparation. cDNA sequence encoding portion of PSD-95/SAP90 was amplified by PCR and subcloned in-frame into PGEX-2T (GIBCO, Rockville, Md., USA) via the BamHI and EcoRI restriction digest sites. […]

T2 sequence (P31016 160-246 limits assumed): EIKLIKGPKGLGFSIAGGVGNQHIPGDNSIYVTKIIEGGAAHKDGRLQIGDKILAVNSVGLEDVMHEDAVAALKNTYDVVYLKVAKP
T1 sequence (P31016 160-246 limits assumed): as above

FC(F)(F)C(Cl)Br (stereo not drawn) [halothane]
growth of the yeast in −LTH media [1]: inhibited by halothane in a similar way
binding of GST-fusion PSD-95 to nNOS [2]: blocks; also recorded: dose-dependently inhibited
binding of GST-fusion PSD-93 to rat brain NMDA receptors [3]: blocks; also recorded: dose-dependently inhibited
growth of the yeast in −LTH media ([4]; dose dependence): dose-dependently inhibited
yeast growth in −LTH media ([4]; high concentration (1.3%)): completely inhibited yeast growth
growth of yeast clones in −LTH media ([4]; low halothane concentrations (0.4%-0.7%)): slowed the growth
yeast growth in −LT media [5]: growth did not differ from yeast grown without halothane
binding of GST-fusion PSD-93 to nNOS [6]: blocks; also recorded: dose-dependently inhibited
binding of GST-fusion PSD-95 to rat brain NMDA receptors [7]: blocks; also recorded: dose-dependently inhibited
growth of the yeast in −LTH media [8]: A similar phenomenon was observed
growth of the yeast in −LTH media [9]: inhibited by halothane in a similar way

CN[C@H](CC(=O)O)C(=O)O [NMDA, N-methyl-D-aspartate]
Grasping [10]: 5 (0)
Placing [10]: 5 (0)
Righting [10]: 5 (0)
Heart rate [11]: 529.20±55.20 beats/min
diastolic blood pressure [11]: 118.30±7.81 mmHg
systolic blood pressure [11]: 135.70±3.38 mmHg
increase from isoflurane control MAC [12]: 15%
ΔTF latency (%) ([13]; NMDA alone, intrathecal 10 nM/10 μl): −25.84%
facilitation of the tail-flick reflex ([13]; intrathecal NMDA 5 nM/10 μl (data not shown)): induced a facilitation of the tail-flick reflex
tail-flick latency after NMDA ([13]; intrathecal NMDA 10 nM/10 μl, baseline 6.58±0.57): 4.88 ± 0.41 s
